Patent US20250064941A1, “SIGLEC LIGANDS, CONJUGATES, AND METHODS OF USE THEREOF” (Osprey Biopharmaceuticals, Inc., priority 2023, published 2025)

What was measured:
[1] = biological target: T1, human Siglec-2/CD22 protein (Homo sapiens, UniProt P20273); experiment: SPR binding affinity to human CD22; conditions: steady-state analysis
T1 construct: purchased Acro Biosystems SI2-H82E3
T1 sequence (P20273 20-847): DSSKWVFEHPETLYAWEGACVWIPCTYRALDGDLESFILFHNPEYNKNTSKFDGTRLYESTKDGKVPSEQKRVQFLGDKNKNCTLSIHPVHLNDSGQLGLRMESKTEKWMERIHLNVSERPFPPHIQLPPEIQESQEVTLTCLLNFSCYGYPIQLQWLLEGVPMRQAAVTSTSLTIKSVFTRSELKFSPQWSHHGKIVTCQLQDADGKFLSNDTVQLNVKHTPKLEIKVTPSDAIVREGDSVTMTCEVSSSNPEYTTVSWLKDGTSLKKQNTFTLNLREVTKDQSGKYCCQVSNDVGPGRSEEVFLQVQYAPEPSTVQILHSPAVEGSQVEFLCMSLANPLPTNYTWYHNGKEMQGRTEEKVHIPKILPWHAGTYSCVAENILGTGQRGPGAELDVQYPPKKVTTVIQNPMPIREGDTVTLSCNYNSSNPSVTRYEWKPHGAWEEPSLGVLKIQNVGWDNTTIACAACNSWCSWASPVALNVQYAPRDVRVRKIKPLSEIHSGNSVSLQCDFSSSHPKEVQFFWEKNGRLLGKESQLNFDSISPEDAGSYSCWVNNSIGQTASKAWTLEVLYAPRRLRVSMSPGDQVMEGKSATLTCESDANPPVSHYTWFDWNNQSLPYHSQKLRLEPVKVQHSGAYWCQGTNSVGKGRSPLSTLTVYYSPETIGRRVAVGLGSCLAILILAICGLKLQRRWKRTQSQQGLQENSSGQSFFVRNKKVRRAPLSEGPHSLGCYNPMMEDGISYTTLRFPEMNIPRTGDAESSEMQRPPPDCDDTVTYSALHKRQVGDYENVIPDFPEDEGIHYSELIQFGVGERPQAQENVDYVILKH
Procedure: (§1) Prior to immobilization, CD22 proteins were treated with SialoExo (Genovis, Cat #G1-SM1-020) for 4 hours at 37° C. to remove native sialic acid residues.
(§2) Capture of biotinylated CD22 constructs was performed using a Cytiva SA chip (BR100398) on a Biacore 8K instrument.
(§3) Binding experiments of Siglec-ligand conjugated proteins or Siglec ligand compounds were performed on the surfaces prepared above in 10 mM HEPES, 150 mM NaCl, 0.05% Tween-20, pH 7.5, 1% DMSO as the running buffer. […] The compounds were then allowed to dissociate from the surface for 120 seconds. […] Solvent correction was performed using 0.5, 1, 1.5, and 2% DMSO spike into running buffer without DMSO. […] Data was analyzed using steady-state analysis in Biacore Insight Evaluation Software, version 3.0 for Siglec ligand compounds.

[2] = biological target: T2, mouse Siglec-2-Fc-Avi (CD22) (Mus musculus, UniProt P35329); experiment: SPR binding affinity to mouse CD22; conditions: steady-state analysis
T2 construct: made in house
T2 sequence (P35329 22-708 limits assumed): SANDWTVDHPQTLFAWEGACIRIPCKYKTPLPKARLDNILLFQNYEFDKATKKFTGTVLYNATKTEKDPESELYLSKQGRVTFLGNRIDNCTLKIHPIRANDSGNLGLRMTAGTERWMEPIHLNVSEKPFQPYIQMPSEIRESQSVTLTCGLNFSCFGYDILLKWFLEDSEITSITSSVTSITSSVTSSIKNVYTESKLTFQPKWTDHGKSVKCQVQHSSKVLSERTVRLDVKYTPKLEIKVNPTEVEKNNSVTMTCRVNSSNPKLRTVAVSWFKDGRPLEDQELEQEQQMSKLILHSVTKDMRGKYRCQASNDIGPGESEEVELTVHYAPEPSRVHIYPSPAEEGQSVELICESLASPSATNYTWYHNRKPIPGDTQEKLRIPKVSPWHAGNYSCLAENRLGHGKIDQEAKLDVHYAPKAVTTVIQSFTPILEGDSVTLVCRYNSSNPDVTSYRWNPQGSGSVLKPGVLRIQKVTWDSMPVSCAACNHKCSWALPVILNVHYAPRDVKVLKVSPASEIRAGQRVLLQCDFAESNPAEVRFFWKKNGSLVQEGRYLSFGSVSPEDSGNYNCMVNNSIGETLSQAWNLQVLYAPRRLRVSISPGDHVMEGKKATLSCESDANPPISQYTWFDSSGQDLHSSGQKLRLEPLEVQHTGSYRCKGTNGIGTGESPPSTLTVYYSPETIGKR
Procedure: as §1, §2, §3

cynomolgus Siglec-2/CD22 = cynomolgus Siglec-2/CD22 (Macaca fascicularis, UniProt A0A2K5WCZ6); experiment: biochemical; assay type: binding; conditions: SPR, steady-state analysis; read-out: Affinity cyno CD22
cynomolgus Siglec-2/CD22, sequence (A0A2K5WCZ6 entry or part of it): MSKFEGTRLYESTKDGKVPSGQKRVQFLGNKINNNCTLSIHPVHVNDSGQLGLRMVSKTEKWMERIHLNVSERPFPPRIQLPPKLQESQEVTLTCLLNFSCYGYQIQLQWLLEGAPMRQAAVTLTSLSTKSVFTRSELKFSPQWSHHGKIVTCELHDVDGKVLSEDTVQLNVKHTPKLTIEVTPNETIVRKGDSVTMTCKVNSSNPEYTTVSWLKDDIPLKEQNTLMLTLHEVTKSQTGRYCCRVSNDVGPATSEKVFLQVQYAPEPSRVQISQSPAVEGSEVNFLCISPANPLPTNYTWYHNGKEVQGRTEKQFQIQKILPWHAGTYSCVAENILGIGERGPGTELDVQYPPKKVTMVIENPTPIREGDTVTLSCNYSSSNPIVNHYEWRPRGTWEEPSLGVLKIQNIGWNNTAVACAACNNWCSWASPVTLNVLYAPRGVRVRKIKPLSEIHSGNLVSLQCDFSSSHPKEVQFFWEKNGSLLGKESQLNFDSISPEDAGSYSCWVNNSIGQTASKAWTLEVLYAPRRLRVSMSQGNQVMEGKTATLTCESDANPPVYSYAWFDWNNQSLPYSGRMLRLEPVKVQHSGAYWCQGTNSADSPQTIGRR
Procedure: as §1
Surface preparation for cyno CD22 protein consisted of amine coupling to Cytiva CM5 chip (Cytiva, Cat #BR100530) using the Cytiva amine coupling kit Type 2 (Cytiva, Cat #BR100633). Following the standard amine coupling protocols, EDC and NHS from the kit were mixed 1:1 and injected over flow cells 1 and 2. […] Any active carboxy groups were then capped with 1M Ethanolamine, pH 8.5 for 420s on flow cells 1 and 2.
as §3

SMILES | Kd [1] | Kd [2] | Kd (cynomolgus Siglec-2/CD22)
C#CCOCCCCCCO[C@]1(C(=O)O)C[C@H](O)[C@@H](NC(=O)CO)[C@H]([C@H](O)[C@H](O)CNC(=O)Cc2ccc(-c3ccc4[nH]cc(C)c4c3)cc2)O1 [Compound 1, (2R,4S,5R,6R)-6-((1R,2R)-1,2-dihydroxy-3-(2-(4-(3-methyl-1H-indol-5-yl)phenyl)acetamido)propyl)-4-hydroxy-5-(2-hydroxyacetamido)-2-((6-(prop-2-yn-1-yloxy)hexyl)oxy)tetrahydro-2H-pyran-2-carboxylic acid] | < 1 µM | < 1 µM | < 1 µM
C#CCOCCOCCO[C@]1(C(=O)O)C[C@H](O)[C@@H](NC(=O)CO)[C@H]([C@H](O)[C@H](O)CNC(=O)Cc2ccc(-c3ccc4[nH]ccc4c3)cc2)O1 [Compound 4, (2R,4S,5R,6R)-6-((1R,2R)-3-(2-(4-(1H-indol-5-yl)phenyl)acetamido)-1,2-dihydroxypropyl)-4-hydroxy-5-(2-hydroxyacetamido)-2-(2-(2-(prop-2-yn-1-yloxy)ethoxy)ethoxy)tetrahydro-2H-pyran-2-carboxylic acid] | < 1 µM | < 1 µM | < 1 µM
C#CCOCCCCCCO[C@]1(C(=O)O)C[C@H](O)[C@@H](NC(=O)CO)[C@H]([C@H](O)[C@H](O)CNC(=O)Cc2ccc3cc[nH]c3c2)O1 [Compound 5, (2R,4S,5R,6R)-6-((1R,2R)-3-(2-(1H-indol-6-yl)acetamido)-1,2-dihydroxypropyl)-4-hydroxy-5-(2-hydroxyacetamido)-2-((6-(prop-2-yn-1-yloxy)hexyl)oxy)tetrahydro-2H-pyran-2-carboxylic acid] | < 1 µM | 1 to 10 µM | < 1 µM
C#CCOCCCCCCO[C@]1(C(=O)O)C[C@H](O)[C@@H](NC(=O)CO)[C@H]([C@H](O)[C@H](O)CNC(=O)Cc2ccc3[nH]ccc3c2)O1 [Compound 6, (2R,4S,5R,6R)-6-((1R,2R)-3-(2-(1H-indol-5-yl)acetamido)-1,2-dihydroxypropyl)-4-hydroxy-5-(2-hydroxyacetamido)-2-((6-(prop-2-yn-1-yloxy)hexyl)oxy)tetrahydro-2H-pyran-2-carboxylic acid] | < 1 µM | 1 to 10 µM | < 1 µM
C#CCCOc1ccc(CO[C@]2(C(=O)O)C[C@H](O)[C@@H](NC(=O)CO)[C@H]([C@H](O)[C@H](O)CNC(=O)Cc3ccc4[nH]c(=O)[nH]c4c3)O2)cc1 [Compound 7, (2R,4S,5R,6R)-2-((4-(but-3-yn-1-yloxy)benzyl)oxy)-6-((1R,2R)-1,2-dihydroxy-3-(2-(2-oxo-2,3-dihydro-1H-benzo[d]imidazol-5-yl)acetamido)propyl)-4-hydroxy-5-(2-hydroxyacetamido)tetrahydro-2H-pyran-2-carboxylic acid] | 1 to 10 µM | > 10 µM | > 10 µM
C#CCCOc1ccc(CO[C@]2(C(=O)O)C[C@H](O)[C@@H](NC(=O)CO)[C@H]([C@H](O)[C@H](O)CNC(=O)Cc3ccc4nc[nH]c4c3)O2)cc1 [Compound 8, (2R,4S,5R,6R)-6-((1R,2R)-3-(2-(1H-benzo[d]imidazol-6-yl)acetamido)-1,2-dihydroxypropyl)-2-((4-(but-3-yn-1-yloxy)benzyl)oxy)-4-hydroxy-5-(2-hydroxyacetamido)tetrahydro-2H-pyran-2-carboxylic acid] | 1 to 10 µM | 1 to 10 µM | 1 to 10 µM
C#CCCOc1ccc(CO[C@]2(C(=O)O)C[C@H](O)[C@@H](NC(=O)CO)[C@H]([C@H](O)[C@H](O)CNC(=O)Cc3ccc4nn[nH]c4c3)O2)cc1 [Compound 9, (2R,4S,5R,6R)-6-((1R,2R)-3-(2-(1H-benzo[d][1,2,3]triazol-6-yl)acetamido)-1,2-dihydroxypropyl)-2-((4-(but-3-yn-1-yloxy)benzyl)oxy)-4-hydroxy-5-(2-hydroxyacetamido)tetrahydro-2H-pyran-2-carboxylic acid] | 1 to 10 µM | 1 to 10 µM | 1 to 10 µM
C#CCCOc1ccc(CO[C@]2(C(=O)O)C[C@H](O)[C@@H](NC(=O)CO)[C@H]([C@H](O)[C@H](O)CNC(=O)Cc3ccc4cn[nH]c4c3)O2)cc1 [Compound 10, (2R,4S,5R,6R)-6-((1R,2R)-3-(2-(1H-indazol-6-yl)acetamido)-1,2-dihydroxypropyl)-2-((4-(but-3-yn-1-yloxy)benzyl)oxy)-4-hydroxy-5-(2-hydroxyacetamido)tetrahydro-2H-pyran-2-carboxylic acid] | 1 to 10 µM | 1 to 10 µM | 1 to 10 µM
C#CCOCCOCCO[C@]1(C(=O)O)C[C@H](O)[C@@H](NC(=O)CO)[C@H]([C@H](O)[C@H](O)CNC(=O)Cc2ccc3c(c2)CC(=O)N3)O1 [Compound 11, (2R,4S,5R,6R)-6-((1R,2R)-1,2-dihydroxy-3-(2-(2-oxoindolin-5-yl)acetamido)propyl)-4-hydroxy-5-(2-hydroxyacetamido)-2-(2-(2-(prop-2-yn-1-yloxy)ethoxy)ethoxy)tetrahydro-2H-pyran-2-carboxylic acid] | 1 to 10 µM | > 10 µM | > 10 µM
C#CCOCCOCCO[C@]1(C(=O)O)C[C@H](O)[C@@H](NC(=O)CO)[C@H]([C@H](O)[C@H](O)CNC(=O)Cc2ccc3c(c2)NC(=O)C3)O1 [Compound 12, (2R,4S,5R,6R)-6-((1R,2R)-1,2-dihydroxy-3-(2-(2-oxoindolin-6-yl)acetamido)propyl)-4-hydroxy-5-(2-hydroxyacetamido)-2-(2-(2-(prop-2-yn-1-yloxy)ethoxy)ethoxy)tetrahydro-2H-pyran-2-carboxylic acid] | 1 to 10 µM | – | > 10 µM
C#CCOCCOCCO[C@]1(C(=O)O)C[C@H](O)[C@@H](NC(=O)CO)[C@H]([C@H](O)[C@H](O)CNC(=O)Cc2ccc(-c3ccncc3)cc2)O1 [Compound 72, (2R,4S,5R,6R)-6-((1R,2R)-1,2-dihydroxy-3-(2-(4-(pyridin-4-yl)phenyl)acetamido)propyl)-4-hydroxy-5-(2-hydroxyacetamido)-2-(2-(2-(prop-2-yn-1-yloxy)ethoxy)ethoxy)tetrahydro-2H-pyran-2-carboxylic acid] | 1 to 10 µM | – | > 10 µM
CC(=O)NCCOCCOCCOCCOCCNC(=O)CCCCCCO[C@]1(C(=O)O)C[C@H](O)[C@@H](NC(C)=O)[C@H]([C@H](O)[C@H](O)CNC(=O)c2cccc(Cl)c2)O1 [Compound 270, (2R,4S,5R,6R)-5-acetamido-6-((1R,2R)-3-(3-chlorobenzamido)-1,2-dihydroxypropyl)-2-((2,19-dioxo-6,9,12,15-tetraoxa-3,18-diazapentacosan-25-yl)oxy)-4-hydroxytetrahydro-2H-pyran-2-carboxylic acid] | 1 to 10 µM | > 10 µM | –
